# Biological target: T1, hCB1 (Homo sapiens, UniProt P21554)
# T1 construct: made in house; host or cells: Sf9 insect cells (baculovirus), P2 membranes
# Experiment: Agonist-induced GTP binding (GTPγ35S) assay at CB1, Example 8
# Type: biochemical
# Conditions: IC50 at CB1, determined as described in Example 8; read-out: IC50
# In short: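 Antagonism read as inhibition of 1 nM CP55,940-stimulated GTPγ35S ([…]) binding, compounds at 10^−10 to 10^−5 M. Baculovirus-infected Sf9 membranes bearing hCB1 plus G-protein subunits, 60 min room-temperature incubation with 5 μM GDP. Filtration and scintillation counting; data as percent over basal.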
# T1 sequence (P21554 whole entry): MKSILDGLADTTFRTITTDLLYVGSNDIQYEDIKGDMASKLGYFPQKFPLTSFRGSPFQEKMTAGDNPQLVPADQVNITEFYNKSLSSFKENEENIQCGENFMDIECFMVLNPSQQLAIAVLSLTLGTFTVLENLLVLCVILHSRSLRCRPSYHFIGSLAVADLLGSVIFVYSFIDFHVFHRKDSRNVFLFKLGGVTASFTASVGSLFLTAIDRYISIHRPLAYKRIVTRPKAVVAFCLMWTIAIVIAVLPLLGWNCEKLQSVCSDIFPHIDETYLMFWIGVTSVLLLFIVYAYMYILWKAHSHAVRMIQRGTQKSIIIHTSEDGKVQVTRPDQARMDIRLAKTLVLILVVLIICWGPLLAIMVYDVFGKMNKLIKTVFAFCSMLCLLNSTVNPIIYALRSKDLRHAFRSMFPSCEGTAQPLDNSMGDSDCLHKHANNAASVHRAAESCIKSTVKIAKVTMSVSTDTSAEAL
row,Structure (SMILES),IC50 [nM]
1,"CCc1ccc(NC(=O)Nc2cccc(C)c2)cc1 [Compound 289, N-(4-ethylphenyl)-N′-(3-methylphenyl)urea]",< 2000
2,"CCc1ccc(NC(=O)Nc2ccc(C)cc2)cc1 [Compound 290, N-(4-ethylphenyl)-N′-(4-methylphenyl)urea]",< 2000
3,"CCCc1ccc(NC(=O)Nc2ccccc2)cc1 [Compound 291, N-phenyl-N′-(4-propylphenyl)urea]",< 2000
4,"CCCc1ccc(NC(=O)Nc2cccc(C)c2)cc1 [Compound 292, 1-(3-methylphenyl)-3-(4-propylphenyl)urea]",< 2000
5,"CCCc1ccc(NC(=O)Nc2ccc(C)cc2)cc1 [Compound 293, N-(4-methylphenyl)-N′-(4-propylphenyl)urea]",< 2000
6,"CCCCc1ccc(NC(=O)Nc2ccccc2)cc1 [Compound 294, N-(4-butylphenyl)-N′-phenylurea]",< 2000
7,"CCCCc1ccc(NC(=O)Nc2ccc(C)cc2)cc1 [Compound 295, N-(4-butylphenyl)-N′-(4-methylphenyl)urea]",< 2000
8,"Cc1cccc(NC(=O)Nc2cccc(OC(C)C)c2)c1 [Compound 297, 1-(3-isopropoxyphenyl)-3-(3-methylphenyl)urea]",< 2000
9,"Cc1ccc(NC(=O)Nc2cccc(OC(C)C)c2)cc1 [Compound 298, N-(3-isopropoxyphenyl)-N′-(4-methylphenyl)urea]",< 2000
10,"Cc1ccc(NC(=O)Nc2ccc(C(C)C)cc2)cc1 [Compound 300, 1-(4-isopropylphenyl)-3-(4-methylphenyl)urea]",< 2000
11,"CCOc1ccc(NC(=O)Nc2cccc(C)c2)cc1 [Compound 302, 1-(4-ethoxyphenyl)-3-(3-methylphenyl)urea]",< 2000
12,"CCCOc1ccc(NC(=O)Nc2ccccc2)cc1 [Compound 303, N-phenyl-N′-(4-propoxyphenyl)urea]",< 2000
13,"CCCOc1ccc(NC(=O)Nc2cccc(C)c2)cc1 [Compound 304, 1-(3-methylphenyl)-3-(4-propoxyphenyl)urea]",< 2000
14,"O=C(Nc1ccccc1)Nc1ccc(OC(F)F)cc1 [Compound 306, N-[4-(difluoromethoxy)phenyl]-N′-phenylurea]",< 2000
15,"Cc1cccc(NC(=O)Nc2ccc(OC(F)F)cc2)c1 [Compound 307, N-[4-(difluoromethoxy)phenyl]-N′-(3-methylphenyl)urea]",< 2000
16,"Cc1ccc(NC(=O)Nc2ccc(OC(F)F)cc2)cc1 [Compound 308, N-[4-(difluoromethoxy)phenyl]-N′-(4-methylphenyl)urea]",< 2000
17,"Cc1ccc(NC(=O)Nc2ccc(C)c(F)c2)cc1 [Compound 312, 1-(3-fluoro-4-methylphenyl)-3-(4-methylphenyl)urea]",< 2000
18,"Cc1ccc(NC(=O)Nc2ccc(Cl)cc2)cc1 [Compound 314, N-(4-chlorophenyl)-N′-(4-methylphenyl)urea]",< 2000
19,"O=C(Nc1ccccc1)Nc1ccc2c(c1)CCC2 [Compound 316, 1-(2,3-dihydro-1H-inden-5-yl)-3-phenylurea]",< 2000
20,"Cc1cccc(NC(=O)Nc2ccc(N3CCOCC3)c(Cl)c2)c1 [Compound 318, 1-(3-chloro-4-morpholin-4-ylphenyl)-3-(3-methylphenyl)urea]",< 2000
21,"Cc1cccc(NC(=O)Nc2ccc(-n3cnc(Cl)c3Cl)cc2)c1 [Compound 319, 1-[4-(4,5-dichloro-1H-imidazol-1-yl)phenyl]-3-(3-methylphenyl)urea]",< 2000
22,"Cc1ccc(NC(=O)Nc2ccc(-n3cnc(Cl)c3Cl)cc2)cc1 [Compound 320, 1-[4-(4,5-dichloro-1H-imidazol-1-yl)phenyl]-3-(4-methylphenyl)urea]",< 2000

# Same assay, conditions: Table II; IC50 at CB1, GTP binding with 1 nM CP55,940; read-out: IC50
row,Structure (SMILES),IC50 [nM]
1,"CCc1cccc(NC(=O)Nc2cccc(OC(F)F)c2)c1 [Compound 253, N-[3-(difluoromethoxy)phenyl]-N′-(3-ethylphenyl)urea]",< 2000
2,"CCc1ccc(NC(=O)Nc2cccc(OC(F)F)c2)cc1 [Compound 254, N-[3-(difluoromethoxy)phenyl]-N′-(4-ethylphenyl)urea]",< 2000
3,"O=C(Nc1cccc(Cl)c1)Nc1cccc(OC(F)F)c1 [Compound 255, N-(3-chlorophenyl)-N′-[3-(difluoromethoxy)phenyl]urea]",< 2000
4,"O=C(Nc1ccc(Cl)cc1)Nc1cccc(OC(F)F)c1 [Compound 256, N-(4-chlorophenyl)-N′-[3-(difluoromethoxy)phenyl]urea]",< 2000
5,"O=C(Nc1ccc(Cl)cc1)Nc1ccc(OC(F)F)cc1 [Compound 257, N-(4-chlorophenyl)-N′-[4-(difluoromethoxy)phenyl]urea]",< 2000
6,"COc1cccc(NC(=O)Nc2ccc(C(C)=O)cc2)c1 [Compound 258, N-(4-acetylphenyl)-N′-(3-methoxyphenyl)urea]",< 2000
7,"COc1ccc(NC(=O)Nc2cccc(C#N)c2)cc1 [Compound 259, N-(3-cyanophenyl)-N′-(4-methoxyphenyl)urea]",< 2000
8,"COc1ccc(NC(=O)Nc2ccc(C(C)=O)cc2)cc1 [Compound 260, N-(4-acetylphenyl)-N′-(4-methoxyphenyl)urea]",< 2000
9,"CCOc1cccc(NC(=O)Nc2ccc(C#N)cc2)c1 [Compound 261, N-(4-cyanophenyl)-N′-(3-ethoxyphenyl)urea]",< 2000
10,"CCOc1cccc(NC(=O)Nc2cccc(C#N)c2)c1 [Compound 262, N-(3-cyanophenyl)-N′-(3-ethoxyphenyl)urea]",< 2000
11,"CCOc1cccc(NC(=O)Nc2ccc(C(C)=O)cc2)c1 [Compound 263, N-(4-acetylphenyl)-N′-(3-ethoxyphenyl)urea]",< 2000
12,"CCOc1ccc(NC(=O)Nc2ccc(C#N)cc2)cc1 [Compound 264, N-(4-cyanophenyl)-N′-(4-ethoxyphenyl)urea]",< 2000
13,"CCOc1ccc(NC(=O)Nc2cccc(C#N)c2)cc1 [Compound 265, N-(3-cyanophenyl)-N′-(4-ethoxyphenyl)urea]",< 2000
14,"CCOc1ccc(NC(=O)Nc2cccc(C(C)=O)c2)cc1 [Compound 266, N-(3-acetylphenyl)-N′-(4-ethoxyphenyl)urea]",< 2000
15,"CCOc1ccc(NC(=O)Nc2ccc(C(C)=O)cc2)cc1 [Compound 267, N-(4-acetylphenyl)-N′-(4-ethoxyphenyl)urea]",< 2000
16,"COCc1ccc(NC(=O)Nc2cccc(C#N)c2)cc1 [Compound 269, N-(3-cyanophenyl)-N′-[4-(methoxymethyl)phenyl]urea]",< 2000
17,"COCc1ccc(NC(=O)Nc2cccc(C(C)=O)c2)cc1 [Compound 270, N-(3-acetylphenyl)-N′-[4-(methoxymethyl)phenyl]urea]",< 2000
18,"COCc1ccc(NC(=O)Nc2ccc(C(C)=O)cc2)cc1 [Compound 271, N-(4-acetylphenyl)-N′-[4-(methoxymethyl)phenyl]urea]",< 2000

row,Structure (SMILES),IC50 [nM]
1,"CCCOc1ccc(NC(=O)Nc2ccc(C#N)cc2)cc1 [Compound 272, N-(4-cyanophenyl)-N′-(4-propoxyphenyl)urea]",< 2000
2,"CCCOc1ccc(NC(=O)Nc2cccc(C#N)c2)cc1 [Compound 273, N-(3-cyanophenyl)-N′-(4-propoxyphenyl)urea]",< 2000
3,"CCCOc1ccc(NC(=O)Nc2cccc(C(C)=O)c2)cc1 [Compound 274, N-(3-acetylphenyl)-N′-(4-propoxyphenyl)urea]",< 2000
4,"CCCOc1ccc(NC(=O)Nc2ccc(C(C)=O)cc2)cc1 [Compound 275, N-(4-acetylphenyl)-N′-(4-propoxyphenyl)urea]",< 2000
5,"CC(C)Oc1cccc(NC(=O)Nc2cccc(C#N)c2)c1 [Compound 276, N-(3-cyanophenyl)-N′-(3-isopropoxyphenyl)urea]",< 2000
6,"CC(=O)c1cccc(NC(=O)Nc2cccc(OC(C)C)c2)c1 [Compound 277, N-(3-acetylphenyl)-N′-(3-isopropoxyphenyl)urea]",< 2000
7,"CC(=O)c1ccc(NC(=O)Nc2cccc(OC(C)C)c2)cc1 [Compound 278, N-(4-acetylphenyl)-N′-(3-isopropoxyphenyl)urea]",< 2000
8,"CC(C)Oc1ccc(NC(=O)Nc2ccc(C#N)cc2)cc1 [Compound 279, N-(4-cyanophenyl)-N′-(4-isopropoxyphenyl)urea]",< 2000
9,"CC(C)Oc1ccc(NC(=O)Nc2cccc(C#N)c2)cc1 [Compound 280, N-(3-cyanophenyl)-N′-(4-isopropoxyphenyl)urea]",< 2000
10,"CC(=O)c1cccc(NC(=O)Nc2ccc(OC(C)C)cc2)c1 [Compound 281, N-(3-acetylphenyl)-N′-(4-isopropoxyphenyl)urea]",< 2000
11,"CC(=O)c1ccc(NC(=O)Nc2ccc(OC(C)C)cc2)cc1 [Compound 282, N-(4-acetylphenyl)-N′-(4-isopropoxyphenyl)urea]",< 2000
12,"N#Cc1ccc(NC(=O)Nc2cccc(OC(F)F)c2)cc1 [Compound 283, N-(4-cyanophenyl)-N′-[3-(difluoromethoxy)phenyl]urea]",< 2000
13,"N#Cc1cccc(NC(=O)Nc2cccc(OC(F)F)c2)c1 [Compound 284, N-(3-cyanophenyl)-N′-[3-(difluoromethoxy)phenyl]urea]",< 2000
14,"CC(=O)c1cccc(NC(=O)Nc2cccc(OC(F)F)c2)c1 [Compound 285, N-(3-acetylphenyl)-N′-[3-(difluoromethoxy)phenyl]urea]",< 2000
15,"CC(=O)c1ccc(NC(=O)Nc2cccc(OC(F)F)c2)cc1 [Compound 286, N-(4-acetylphenyl)-N′-[3-(difluoromethoxy)phenyl]urea]",< 2000
16,"N#Cc1ccc(NC(=O)Nc2ccc(OC(F)F)cc2)cc1 [Compound 287, N-(4-cyanophenyl)-N′-[4-(difluoromethoxy)phenyl]urea]",< 2000
17,"CC(=O)c1ccc(NC(=O)Nc2ccc(OC(F)F)cc2)cc1 [Compound 288, N-(4-acetylphenyl)-N′-[4-(difluoromethoxy)phenyl]urea]",< 2000

# Reference: patent US20090239841A1, “Diaryl Ureas as CB1 Antagonists” (priority 2004, published 2009)
